# Patent US20180203025A1, “HDL THERAPY MARKERS” (Cerenis Therapeutics Holding SA, priority 2014, published 2018)
# Experiment: Plasma cholesterol mobilization in apoE−/− mice
# Format: in vivo, mouse
# Experimental: The formulation was injected in the retro-orbital vein (50 μL/mouse) of mice anaesthetized with isoflurane, once every 2 days for 8 injections. The dose administered was based on the mean of mice bodyweight in each cage. The compounds were injected at 10 AM every day. For blood sampling, mice fasted overnight were sampled once at the indicated dose: (1) at predose (at 9 AM) by retro-orbital withdrawal: 24 hours before the first injection/day of surgery; (2) at postdose (at 9 AM) by retro-orbital withdrawal: 24 hours after the last injection; and (3) at t=0 (9 AM) and the indicated time points after the 5th injection by caudal withdrawal. Immediately after collection, blood samples were kept at ca. +4° C. to avoid alteration of the blood sample. Blood specimens were centrifuged (800×g for 10 minutes at +4° C.) and plasma was saved for future analysis.
# (§1) Add in each tube cholesterol standards (2 g/L): 0/0.625/1.25/1.875/2.5/3.75/5 μl. Centrifuge plasma samples at 12,000×g for 1 minute. Add 0.5 ml of the reconstituted buffer to each tube (standard and samples), vortex and incubate 5 minutes at 37° C. Transfer 150 μl from each tube to 2 different wells in a 96 well plate. Read absorbance at 500 nm.
# as §1, with “of” for “of the”
# This study examined the consequences of CER-001 administration on the lipoprotein profile in apoE^−/− mice fed with high fat diet. Blood was collected and analyzed at different time points after the 5th infusion. Plasma pre-dose (before the first injection) and plasma post-dose (24h after the last injection) were also compared. Plasma was analyzed for total and unesterified cholesterol and human ApoA-I contents.
# Total and unesterified cholesterol concentrations were determined according to the procotols of Sections 9.2.5 and 9.2.6, respectively. Cholesterol ester concentrations are determined after subtracted unesterified cholesterol from total cholesterol. The mobilization of cholesterol was determined on 12 mice per group after the 5th administration (1 hour before injection; 1 h, 2h, 4h and 24h after injection). The animals were fasted overnight.
substance,measurement,setting,value
"CER-001: engineered recombinant human apolipoprotein A-I HDL with sphingomyelin and DPPG; protein-to-phospholipid ratio 1:2.7, 97% Sph and 3% DPPG",plasma unesterified cholesterol concentration,"50 mg/kg, 2 and 4 hours after infusion",seemed to increase the plasma unesterified cholesterol concentration
same,post-dose total and unesterified cholesterol concentrations compared to HDL3 treated mice,24h after the last injection,two times higher
same,doses increasing the cholesterol concentration in plasma compared to placebo,after 8 injections,above 10 mg/kg
same,mobilization of unesterified cholesterol,after the 5th infusion,No significant changes
same,total plasma cholesterol mobilization,after the 5th infusion,No significant changes
